The values below come from ChEMBL document CHEMBL3217731 (Medchemcomm, 2012).

What all share (set-up): dose 2.5 mg/kg, route intraperitoneal
The test system of one data set is Brain. Briefly: Drug uptake in C57BL/6J mouse brain at 2.5 mg/kg, ip measured at 4 hrs by CE-UV analysis. The format is ADME, organism-based. The conditions noted are these: in vivo.
Data set [1] concerns Serum. Briefly: Drug uptake in C57BL/6J mouse serum at 2.5 mg/kg, ip measured at 10 to 60 mins by CE-UV analysis. The note with it: in vivo. The format is ADME, organism-based.
Data set [2] can be described thus: Drug uptake in C57BL/6J mouse eye at 2.5 mg/kg, ip measured at 10 hrs by CE-UV analysis. The format is ADME, organism-based. The note with it: in vivo.
The nature of data set [3]: Drug uptake in C57BL/6J mouse CSF at 2.5 mg/kg, ip measured at 4 to 10 hrs by CE-UV analysis. The format is ADME, organism-based, Cerebrospinal fluid. The conditions noted are these: in vivo.
Data set [4] relates to Serum. Briefly: AUC in C57BL/6J mouse serum at 2.5 mg/kg, ip by CE-UV analysis. The format is ADME, organism-based, Plasma. The conditions noted are these: in vivo.
Data set [5] deals with Serum. Description: Half life in C57BL/6J mouse serum at 2.5 mg/kg, ip. The conditions noted are these: in vivo. The format is ADME, organism-based.
A short description of data set [6]: AUC in C57BL/6J mouse CSF at 2.5 mg/kg, ip by CE-UV analysis. The format is ADME, organism-based.

For the molecule `CN1C(=O)N[C@H]2[C@@H]3NC(=O)c4ccc(Br)n4[C@@H]3C[C@]21O` [AGELASTATIN A], the Drug uptake entry (in the data set with Brain; in the data set on Serum [1]; in data set [2]; in data set [3]) was “Active” each time. Further, the AUC was determined as 33.8 µM·h in the data set with Serum [4] and 3.41 µM·h in data set [6]. This molecule gave a t1/2 with Serum [5] of 12 h.

As a reminder, the AUC is the area under the concentration-time curve, a measure of exposure.
